Laboratory results published in patent US9974782B2, “Phosphodiesterase inhibitors and uses thereof” (THE TRUSTEES OF COLUMBIA UNIVERSITY IN THE CITY OF NEW YORK, priority 2008, dated 2018).
“Also recorded” adds a separate entry of the source. Where two headings read alike, the source gives them in different places.

Tests used:
PDE5 = PDE5 (Homo sapiens, UniProt O76074); details: cited from earlier work
PDE1 = details: cited from earlier work
PDE6 = details: cited from earlier work
PDE2 = PDE2 (Homo sapiens, UniProt O00408); details: cited from earlier work
PDE3 = details: cited from earlier work
PDE4 = details: cited from earlier work
[1] = test system: isolated rabbit corpus cavernosum; details: read-out: EC50, relaxant effect; cited from earlier work
[2] = rat, in vivo; cited from earlier work
[3] = test system: human Aβ40 and Aβ42 levels; details: rolipram, earlier study; cited from earlier work
[4] = test system: CA1 region of hippocampal slices from APP/PS1 and WT mice; assay: Electrophysiological analysis (BST, LTP) of hippocampal slices perfused with inhibitor; assay type: cell-based, mouse
APP/PS1 mice [5] = assay: Contextual and cued fear conditioning; assay type: in vivo, mouse; details: for effect on contextual fear memory in words: APP/PS1 (transgenic) mice
Experimental: Given that sildenafil reversed LTP deficits in 3-month-old APP/PS1, it was then tested whether the inhibitor reversed the cognitive defects in these animals. As reported above sildenafil offers the advantage of crossing the BBB and therefore it can be easily utilized in behavioural experiments. Three-month-old mice were divided into 4 groups: APP/PS1 with sildenafil, APP/PS1 with vehicle, WT with sildenafil and WT with vehicle. Sildenafil and vehicle control solutions were administered i.p. at a concentration of 3 mg/kg. This concentration was chosen based on previous studies showing that these amounts of sildenafil raise hippocampal cGMP levels and improve memory in aged rats^A6 and mice^A7 independent of vascular effects^A6. The effects of acute administration of sildenafil was first examined on fear-conditioning learning, a type of learning that is impaired in several AD mouse models^A14 and depends on hippocampus and amygdala. The hippocampus is indispensable for contextual fear conditioning^A15, a form of associative learning in which mice must associate a neutral stimulus with an aversive one. Mice were trained to associate neutral stimuli with an aversive one. They were placed in a new context (fear conditioning box), exposed to a white noise cue (CS) paired with a mild foot shock (US), and injected with sildenafil immediately after the training. Fear learning was assessed twenty-four hours later by measuring freezing behaviour—the absence of all movement except for that necessitated by breathing—in response to representation of the context or of the auditory cue within a completely different context. No difference was found in the freezing behaviour among the four groups of mice before the training phase (FIG. 2A). Twenty-four hours later, a decrease in the freezing behaviour of vehicle-treated APP/PS1 mice compared with that of vehicle-treated WT littermates in the analysis of the contextual learning was observed (FIG. 2A). […] Fear conditioning, a hippocampus-independent task A^15, was next tested and no difference in freezing among the 4 groups was found, as APP/PS1 mice are known to have a selective hippocampus-dependent impairment in associative learning^A14.
Sildenafil was tested to determine whether a brief course of treatment can provide long term benefits. The PDE5 inhibitor was examined to see if it maintains its protective effect against synaptic dysfunction and memory loss. In these experiments, both APP/PS1 and WT mice of 3 months of age were injected intraperitoneally with 3 mg/kg/day sildenafil for 3 weeks, then the treatment was stopped for 9-12 weeks prior to testing. The mice were next subjected to training for contextual learning. […] There were no differences between the 4 groups in the cued conditioning test.
Three-month-old APP/PS1 and WT mice were separated into 4 groups: APP/PS1 mice treated with vehicle, APP/PS1 mice treated with PDE inhibitor, WT mice treated with vehicle, and WT mice treated with PDE inhibitor. […] In the remaining experiments, sildenafil was injected via i.p. The drug was administered either acutely or for 1 course of 3 week treatment. For assessment of the short-term effects of sildenafil, the drug was given at a concentration of 3 mg/kg immediately after the training. This dose yields concentrations of ˜2.5 μM cGMP in the hippocampus^A53. For assessment of long-term effects, sildenafil was given daily by i.p. injection at a concentration of 3 mg/kg for 3 weeks and then treatment was stopped for 9-12 weeks prior to behavioral testing. Contextual and cued fear conditioning was performed for 3 days. Radial-arm water-maze (RAWM) was performed for 3 weeks. Then, the animals were sacrificed for electrophysiological recordings. To decide the time of administration of sildenafil in the acute experiments, a series of studies was performed in which the inhibitor was injected i.p. at 5 min before the electric shock or at 5 min before the first acquisition trial with the radial arm water maze. […]

APP/PS1 mice [6] = assay: Radial-arm water maze (spatial working memory); assay type: in vivo, mouse; details: APP/PS1 (transgenic) mice
Excerpt: Next, the effect of treatment with sildenafil was examined on spatial working memory, a type of short-term memory that can be studied with the radial-arm water maze test. […] Mice were required to learn and memorize the location of a hidden platform in one of the arms of a maze with respect to spatial cues. […] However, daily injections of sildenafil for 3 weeks immediately after the 4th acquisition trial ameliorated the behavioural performance of APP/PS1 mice (FIG. 2B).
The effects of one course of 3-week treatment with sildenafil on spatial working memory were next tested using the radial-arm water-maze task. There was a difference between the number of errors made by vehicle-treated APP/PS1 and WT mice (FIG. 3B)^A12. Administration of sildenafil for 3 weeks, 9-12 weeks prior to the testing, reduced the gap between the two groups without affecting performance of the WT animals (FIG. 3B).
Three-month-old APP/PS1 and WT mice were separated into 4 groups: APP/PS1 mice treated with vehicle, APP/PS1 mice treated with PDE inhibitor, WT mice treated with vehicle, and WT mice treated with PDE inhibitor. […] In the remaining experiments, sildenafil was injected via i.p. The drug was administered either acutely or for 1 course of 3 week treatment. For assessment of the short-term effects of sildenafil, the drug was given at a concentration of 3 mg/kg immediately after the training. This dose yields concentrations of ˜2.5 μM cGMP in the hippocampus^A53. For assessment of long-term effects, sildenafil was given daily by i.p. injection at a concentration of 3 mg/kg for 3 weeks and then treatment was stopped for 9-12 weeks prior to behavioral testing. Contextual and cued fear conditioning was performed for 3 days. Radial-arm water-maze (RAWM) was performed for 3 weeks. Then, the animals were sacrificed for electrophysiological recordings. To decide the time of administration of sildenafil in the acute experiments, a series of studies was performed in which the inhibitor was injected i.p. at 5 min before the electric shock or at 5 min before the first acquisition trial with the radial arm water maze. […] Thus, all the behavioral experiments on the acute effects of sildenafil reported in the result section were performed with injection after the training.
This is a type of short-term memory that can be studied with the RAWM test^12. Briefly, the RAWM consisted of a white tank (120 cm diameter) filled with water (24-25° C.) and made opaque by the addition of non-toxic white paint. Within the tank walls were positioned so as to produce six arms, radiating from a central area. Spatial cues were presented on the walls of the testing room. At the end of one of the arms was positioned a clear 10 cm submerged (1.5 cm) platform that remained in the same location for every trial in one day, but was moved about randomly from day to day. On each trial the mouse started the task from a different randomly chosen arm. […] Each trial lasted 1 min and errors were counted each time the mouse entered the wrong arm or needed more than 20 sec to reach the platform. After each error the mouse was pulled back to the start arm for that trial. After 4 consecutive acquisition trials, the mouse was placed in its home cage for 30 min, then returned to the maze and administered a 5th retention trial. Testing was considered completed as the WT mice made the same number of errors at the 4th and 5th trial. The scores for each mouse on the last three days of testing were averaged and used for statistical analysis.

[7] = in vivo, cited from earlier work
[8] = WT slices, 120 min after tetanus, sildenafil 50 nM, tadalafil 50 nM, IC354 1 μM
[9] = WT slices, sildenafil or tadalafil 50 nM
[10] = slices of 3-month-old APP/PS1 mice, 120 min after tetanus, 10 min perfusion (sildenafil 50 nM, tadalafil 50 nM, IC354 1 μM)
[11] = 3 month-old WT, sildenafil 3 mg/Kg or tadalafil 1 mg/Kg i.p.

Sequence of PDE2 (O00408 whole entry): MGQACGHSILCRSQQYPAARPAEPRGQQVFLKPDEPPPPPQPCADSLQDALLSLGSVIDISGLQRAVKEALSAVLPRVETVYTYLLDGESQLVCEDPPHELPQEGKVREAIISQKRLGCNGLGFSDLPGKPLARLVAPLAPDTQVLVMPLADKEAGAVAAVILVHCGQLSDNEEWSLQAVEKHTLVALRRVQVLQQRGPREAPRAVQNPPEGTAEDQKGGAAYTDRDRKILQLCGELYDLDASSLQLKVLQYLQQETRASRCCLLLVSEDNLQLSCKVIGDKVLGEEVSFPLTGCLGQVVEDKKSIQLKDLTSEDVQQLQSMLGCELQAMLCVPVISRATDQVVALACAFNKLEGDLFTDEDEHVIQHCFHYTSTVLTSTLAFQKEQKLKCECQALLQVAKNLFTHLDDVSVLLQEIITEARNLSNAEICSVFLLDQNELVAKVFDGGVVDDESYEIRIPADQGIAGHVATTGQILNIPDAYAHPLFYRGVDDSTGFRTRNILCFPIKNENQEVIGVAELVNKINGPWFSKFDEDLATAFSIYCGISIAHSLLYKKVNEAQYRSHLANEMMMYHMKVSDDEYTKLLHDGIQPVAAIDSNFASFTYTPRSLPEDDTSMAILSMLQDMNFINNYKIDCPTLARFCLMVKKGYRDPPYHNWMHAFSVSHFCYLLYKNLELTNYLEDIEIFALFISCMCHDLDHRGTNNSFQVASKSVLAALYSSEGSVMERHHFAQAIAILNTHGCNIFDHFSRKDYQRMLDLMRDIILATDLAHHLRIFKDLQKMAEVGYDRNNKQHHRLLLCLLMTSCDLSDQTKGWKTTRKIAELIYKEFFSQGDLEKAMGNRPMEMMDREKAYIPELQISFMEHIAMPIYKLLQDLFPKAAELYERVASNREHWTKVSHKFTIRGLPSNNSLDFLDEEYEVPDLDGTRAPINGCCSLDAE

COC(=O)c1c(-c2cc(OC)c(OC)c(OC)c2)c2ccc(OCc3ccccn3)cc2c(=O)n1-c1ccc(N)cc1.O=S(=O)(O)O [T1032]
IC50 (PDE5; read-out: IC50 against PDE5): < 1 nM
selectivity ratio for PDE1 (PDE1/PDE5) (PDE1): 1300
selectivity ratio for PDE6 (PDE6/PDE5) (PDE6): 28
PDE2/PDE5 (PDE2): > 10 000
PDE3/PDE5 (PDE3): > 10 000
PDE4/PDE5 (PDE4): 4700
EC50 [1]: 7.9 nM

CCOC(=O)c1cc2c(cn1)[nH]c1ccccc12 [beta-CCE, Ethyl beta-carboline-3-carboxylate]
PDE5 inhibition in words (PDE5): weak, non-selective PDE5 inhibitor

Cc1cc(-c2ccccc2)nnc1NCCN1CCOCC1 [minaprine]
brain/blood ratio [2]: > 2

COc1ccc(C2CNC(=O)C2)cc1OC1CCCC1 (stereo not drawn) [rolipram]
effect on Aβ in brains of APP/PS1 mice in words [3]: did not affect Aβ concentration; also recorded: did not affect Aβ load

CN1CC(=O)N2C(Cc3c([nH]c4ccccc34)C2c2ccc3c(c2)OCO3)C1=O (stereo not drawn) [tadalafil, 6-benzo[1,3]dioxol-5-yl-2-methyl-2,3,6,7,12,12a-hexahydro-pyrazino[1′,2′:1,6]pyrido[3,4-b]indole-1,4-dione]
LTP, fEPSP slope as % of baseline [4, 8]: 232.45±21.92%
level of LTP as % of vehicle-treated WT slices [4, 8]: ~106%
basal synaptic responses without tetanus as % of vehicle-treated WT slices [4, 9]: ~98%
basal synaptic responses without tetanus, fEPSP % of baseline [4, 9]: 103.65±1.63%
effect on LTP impairment in words ([4]; slices from APP/PS1 (transgenic) mice, 10 min prior to tetanus): reverses LTP impairment
LTP, fEPSP slope as % of baseline [4, 10]: 209.49±13.89%
level of LTP as % of vehicle-treated WT littermates [4, 10]: ~96%
contextual freezing time (APP/PS1 mice [5]; 3 month-old APP/PS1, sildenafil 3 mg/Kg or tadalafil 1 mg/Kg i.p., 24 hrs after training): 18.76±3.89%
contextual freezing time as % of vehicle-treated APP/PS1 mice (APP/PS1 mice [5]; 3 month-old APP/PS1, tadalafil 1 mg/Kg i.p.): ~122%
contextual freezing as % of vehicle-treated WT mice (APP/PS1 mice [5]; [11]): ~85%
contextual freezing time (APP/PS1 mice [5]; [11]): 28.29±3.30%
effect on contextual fear memory in words (APP/PS1 mice [5]): does not modify contextual fear conditioning
effect on contextual fear memory in words (APP/PS1 mice [5]; listed as Tadalafil): did not improve associative learning
effect on spatial working memory (RAWM) in words (APP/PS1 mice [6]): does not improve spatial working memory
effect on spatial working memory (RAWM) in words (APP/PS1 mice [6]; listed as Tadalafil): did not improve
ability to cross the BBB in words [7]: unlikely to cross it; also recorded: does not cross it
ability to cross the BBB in words ([7]; listed as Tadalafil): does not cross it
